PubChem BioAssay (NCI)
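How tested: cells in 96-well plates exposed to compound for 48 hours at five concentrations. TGI: total growth inhibition.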 Where a SMILES comes first, the peptide text is derived from it.

Tests used:
Assay in all cases: NCI anticancer screen, dose series, 48 h
786-0 renal = system: 786-0 renal
BT-549 breast = system: BT-549 breast
CAKI-1 renal = system: CAKI-1 renal
COLO 205 colon = system: COLO 205 colon
EKVX NSCLC = system: EKVX NSCLC
HCT-116 colon = system: HCT-116 colon
HOP-92 NSCLC = system: HOP-92 NSCLC
HT29 colon = system: HT29 colon
K-562 leukemia = system: K-562 leukemia
KM12 colon = system: KM12 colon
MDA-MB-231 breast = system: MDA-MB-231 breast
OVCAR-8 ovarian = system: OVCAR-8 ovarian
SF-268 CNS = system: SF-268 CNS
SF-295 CNS = system: SF-295 CNS
SK-MEL-2 melanoma = system: SK-MEL-2 melanoma
SK-MEL-28 melanoma = system: SK-MEL-28 melanoma
SNB-19 CNS = system: SNB-19 CNS
SW-620 colon = system: SW-620 colon
LOX IMVI melanoma = system: LOX IMVI melanoma
TK-10 renal = system: TK-10 renal

Compound	TGI (786-0 renal) [µM]	TGI (BT-549 breast) [µM]	TGI (CAKI-1 renal) [µM]	TGI (COLO 205 colon) [µM]	TGI (EKVX NSCLC) [µM]	TGI (HCT-116 colon) [µM]	TGI (HOP-92 NSCLC) [µM]	TGI (HT29 colon) [µM]	TGI (K-562 leukemia) [µM]	TGI (KM12 colon) [µM]	TGI (MDA-MB-231 breast) [µM]	TGI (OVCAR-8 ovarian) [µM]	TGI (SF-268 CNS) [µM]	TGI (SF-295 CNS) [µM]	TGI (SK-MEL-2 melanoma) [µM]	TGI (SK-MEL-28 melanoma) [µM]	TGI (SNB-19 CNS) [µM]	TGI (SW-620 colon) [µM]	TGI (LOX IMVI melanoma) [µM]	TGI (TK-10 renal) [µM]
C/C(=N\Nc1nc2ccccc2s1)c1cnccn1	> 100	> 100	> 42.2	> 36.9	5	> 36.8	> 28.3	2.81	> 34.1	15.2	> 88.1	5.86	> 22.7	> 23.5	49.9	> 100	> 29.4	> 100	–	–
CNC(=O)CNC(=O)C(NC(=O)CNC(=O)C1CCCN1C(=O)C(C)NC(=O)C(NC(C)=O)C(C)C)C(C)C (configuration not stated) (Ac-VAPGVG-NHMe; configuration not given here)	> 100	–	> 100	> 100	> 100	> 100	> 100	> 100	> 100	–	> 100	> 100	> 100	> 100	> 100	> 100	> 100	> 100	> 100	> 100
O=[N+]([O-])c1cc(-c2nnc(C34CC5CC(CC(C5)C3)C4)o2)cc([N+](=O)[O-])c1	> 100	–	> 100	42.4	> 100	> 100	94.6	32.2	> 100	> 100	> 100	> 100	> 100	> 100	> 100	> 100	> 100	37.8	> 100	–
Nc1ncnc2c1ncn2C1C=CC(COS(N)(=O)=O)C1 (configuration not stated)	> 100	–	57.6	> 100	> 100	> 100	87.3	> 100	> 100	> 100	> 100	> 100	> 100	> 100	> 100	> 100	> 100	> 100	37.6	> 100
CS/C(=N\S(=O)(=O)c1cc(C)c(Cl)cc1Cl)NNc1cnc2ccccc2n1	> 100	> 100	> 100	> 100	> 100	> 100	> 100	> 100	> 100	> 100	> 100	> 100	> 100	> 100	–	> 100	> 100	> 100	> 100	> 100
CCOC1(OCC)N=C(N)C2(C#N)C3(C(=O)N(C(C)C)N=C3C)C12C#N (configuration not stated)	> 100	> 100	> 100	> 100	> 100	> 100	> 100	> 100	> 100	> 100	> 100	> 100	> 100	> 100	> 100	> 100	> 100	> 100	–	–
CCCNC(=O)Cn1c(C)cc2ccccc21	> 100	> 100	> 100	> 100	> 100	> 100	> 100	> 100	> 100	> 100	–	> 100	> 100	–	> 100	> 100	> 100	> 100	> 100	> 100
NC(=NCCN1CCCCCCC1)NO	> 100	–	> 100	> 100	> 100	26.7	> 100	> 100	> 100	> 100	> 100	> 100	> 100	> 100	> 100	> 100	> 100	> 100	> 100	> 100
CCOC(=O)c1c(-c2ccccc2)nc2c(OC)nccn12	> 100	> 100	> 100	> 100	> 100	> 100	–	> 100	> 100	> 100	> 100	> 100	> 100	> 100	> 100	> 100	> 100	> 100	> 100	> 100
N#C/C(C(=S)Nc1ccccc1)=C(/N)N1CCCC1	> 100	–	92.5	> 100	> 100	> 100	> 100	> 100	> 100	> 100	> 100	> 100	> 100	> 100	> 100	> 100	> 100	> 100	> 100	> 100
NCCCCN(CCCN)Cc1ccc2ccccc2c1	> 100	> 100	33	> 100	> 100	> 100	> 100	> 100	> 100	> 100	> 100	> 100	44	> 100	–	> 100	55	> 100	> 100	> 100
COC(=O)CCc1ccc2c(c1)CC1(Cc3ccccc3C1)C2	> 100	–	–	> 100	> 100	> 100	> 100	> 100	> 100	> 100	> 100	> 100	–	> 100	> 100	–	–	–	> 100	> 100
CO/N=C(\C(=O)Nc1cncs1)c1csc(N)n1	> 10	> 10	> 10	> 10	> 10	> 10	> 10	> 10	> 10	> 10	> 10	> 10	> 10	> 10	–	> 10	> 10	> 10	> 10	> 10
